# Assay results published in ChEMBL document CHEMBL3352436, “DDD-028: a potent potential non-opioid, non-cannabinoid analgesic for neuropathic and inflammatory pain” (Bioorg Med Chem Lett, 2014).
# The source made the active and inactive calls.
# Assays:
# [1] = molecular target: Transient receptor potential cation channel subfamily V member 1 (Homo sapiens, UniProt Q8NER1); assay: Binding affinity to TRPV1 (unknown origin)
# [2] = Cmax in CD1 mouse at 5 mg/kg, po; assay type: ADME, organism-based; design: dose 5 mg/kg, route oral; conditions: in vivo
# [3] = Binding affinity to […] AMPA receptor (unknown origin); design: species or system Homo sapiens
# [4] = Binding affinity to sigma2 receptor (unknown origin); design: species or system Homo sapiens
# Rattus norvegicus [5] = assay: Antinociceptive activity in spinal nerve ligation CD rat model of neuropathic pain assessed as inhibition of mechanical allodynia measured as time required for maximal effect at 5 mg/kg, po; assay type: functional
# [6] = Half life in CD1 mouse at 5 mg/kg, po; assay type: ADME, organism-based; design: dose 5 mg/kg, route oral; conditions: in vivo
# [7] = AUC (0 to infinity) in CD1 mouse at 5 mg/kg, po; assay type: ADME, organism-based; design: time infinity, dose 5 mg/kg, route oral; conditions: plasma
# Mus musculus [8] = assay: Antinociceptive activity in sciatic nerve chronic constriction injury CD1 mouse model assessed as paw withdrawal threshold at 1.3 umol/kg administered intrathecally measured at 30 mins (reference value: 0.21 to 0.30 g); assay type: functional
# Rattus norvegicus [9] = assay: Antinociceptive activity in spinal nerve ligation CD rat model of neuropathic pain assessed as inhibition of mechanical allodynia measured as paw withdrawal threshold at 5 mg/kg, po after 15 to 180 mins relative to pregabalin; assay type: functional
# [10] = Tmax in CD1 mouse at 5 mg/kg, po; assay type: ADME, organism-based; design: dose 5 mg/kg, route oral; conditions: in vivo
# [11] = molecular target: Somatostatin receptor type 2 (Homo sapiens, UniProt P30874); assay: Binding affinity to SST2 receptor (unknown origin)
# Chain of Somatostatin receptor type 2 (P30874 whole entry): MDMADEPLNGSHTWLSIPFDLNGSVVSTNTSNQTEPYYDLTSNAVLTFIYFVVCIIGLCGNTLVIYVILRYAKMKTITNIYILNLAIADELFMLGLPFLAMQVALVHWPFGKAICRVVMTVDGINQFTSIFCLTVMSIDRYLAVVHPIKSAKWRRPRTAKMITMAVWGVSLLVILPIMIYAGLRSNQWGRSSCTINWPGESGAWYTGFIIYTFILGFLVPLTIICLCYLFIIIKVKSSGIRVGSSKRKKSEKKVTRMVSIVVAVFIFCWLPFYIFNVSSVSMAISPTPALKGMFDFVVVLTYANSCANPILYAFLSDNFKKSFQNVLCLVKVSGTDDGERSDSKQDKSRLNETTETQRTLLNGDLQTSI
# Rattus norvegicus [12] = assay: Antinociceptive activity in Complete Freund's adjuvant-induced inflammatory pain CD rat model assessed as mechanical hypersensitivity measured as weight bearing capacity at 5 mg/kg, po administered before challenge relative to control; assay type: functional
# [13] = Binding affinity to strychnine-insensitive glycine receptor (unknown origin); design: species or system Homo sapiens
# Rattus norvegicus [14] = assay: Toxicity in Complete Freund's adjuvant-induced inflammatory pain CD rat model assessed as sedation at 5 mg/kg, po measured at 2 hrs post dose; assay type: organism-based; design: dose 5 mg/kg, route oral; conditions: in vivo
# Mus musculus [15] = assay: Antinociceptive activity in sciatic nerve chronic constriction injury CD1 mouse model assessed as paw withdrawal threshold at 3.5 umol/kg, po measured at 120 mins (reference value: 0.26 to 0.37 g); assay type: functional
# Rattus norvegicus [16] = assay: Antinociceptive activity in Complete Freund's adjuvant-induced inflammatory pain CD rat model assessed as mechanical hypersensitivity measured as weight bearing capacity at 5 mg/kg, po measured after 15 to 120 mins relative to indomethacin; assay type: functional
# Cannabinoid receptor 1 = Cannabinoid receptor 1 (Homo sapiens, UniProt P21554); assay: Binding affinity to cannabinoid CB1 receptor (unknown origin)
# Chain of Cannabinoid receptor 1 (P21554 whole entry): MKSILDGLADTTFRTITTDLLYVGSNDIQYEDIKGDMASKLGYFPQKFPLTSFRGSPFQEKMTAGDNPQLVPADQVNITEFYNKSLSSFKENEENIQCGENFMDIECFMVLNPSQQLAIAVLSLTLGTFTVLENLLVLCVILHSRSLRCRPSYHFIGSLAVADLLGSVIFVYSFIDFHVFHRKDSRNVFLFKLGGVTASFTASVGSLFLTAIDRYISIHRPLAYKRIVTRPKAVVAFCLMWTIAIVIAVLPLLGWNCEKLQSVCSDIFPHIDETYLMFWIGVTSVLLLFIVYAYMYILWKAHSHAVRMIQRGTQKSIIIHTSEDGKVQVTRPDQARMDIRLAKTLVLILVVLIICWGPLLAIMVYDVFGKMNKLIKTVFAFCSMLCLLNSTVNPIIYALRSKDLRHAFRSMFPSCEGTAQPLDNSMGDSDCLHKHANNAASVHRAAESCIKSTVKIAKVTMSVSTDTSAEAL
# Adenosine receptor A1 = molecular target: T1, Adenosine receptor A1 (Homo sapiens, UniProt P30542); assay: Binding affinity to adenosine A1 receptor (unknown origin)
# T1 sequence (P30542 whole entry): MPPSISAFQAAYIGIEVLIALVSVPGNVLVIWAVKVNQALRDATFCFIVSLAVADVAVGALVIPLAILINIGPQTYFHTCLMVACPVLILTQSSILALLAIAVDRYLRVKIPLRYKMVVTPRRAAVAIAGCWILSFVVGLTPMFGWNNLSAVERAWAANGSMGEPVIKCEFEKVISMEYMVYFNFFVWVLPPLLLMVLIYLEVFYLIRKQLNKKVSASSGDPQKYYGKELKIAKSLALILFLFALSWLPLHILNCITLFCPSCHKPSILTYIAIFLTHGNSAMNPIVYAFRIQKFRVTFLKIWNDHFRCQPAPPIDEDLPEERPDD
# Mus musculus [17] = assay: Antinociceptive activity in sciatic nerve chronic constriction injury CD1 mouse model assessed as paw withdrawal threshold at 3.5 umol/kg, po measured at 30 mins (reference value: 0.26 to 0.37 g); assay type: functional
# Cannabinoid receptor 2 = Cannabinoid receptor 2 (Homo sapiens, UniProt P34972); assay: Binding affinity to cannabinoid CB2 receptor (unknown origin)
# Chain of Cannabinoid receptor 2 (P34972 whole entry): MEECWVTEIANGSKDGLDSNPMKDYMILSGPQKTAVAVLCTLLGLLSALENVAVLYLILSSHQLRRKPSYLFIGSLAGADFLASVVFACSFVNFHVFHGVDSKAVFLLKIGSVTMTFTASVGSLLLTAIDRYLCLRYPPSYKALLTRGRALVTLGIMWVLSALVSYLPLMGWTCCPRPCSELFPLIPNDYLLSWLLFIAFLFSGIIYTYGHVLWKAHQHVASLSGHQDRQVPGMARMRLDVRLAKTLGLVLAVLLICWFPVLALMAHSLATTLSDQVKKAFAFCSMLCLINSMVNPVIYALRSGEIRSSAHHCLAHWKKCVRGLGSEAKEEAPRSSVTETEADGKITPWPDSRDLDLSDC
# Mus musculus [18] = assay: Antinociceptive activity in sciatic nerve chronic constriction injury CD1 mouse model assessed as paw withdrawal threshold at 1.3 umol/kg administered intrathecally measured at 120 mins (reference value: 0.21 to 0.30 g); assay type: functional
# Mus musculus [19] = assay: Antinociceptive activity in sciatic nerve chronic constriction injury CD1 mouse model assessed as paw withdrawal threshold at 3.5 umol/kg, po measured at 60 mins (reference value: 0.26 to 0.37 g); assay type: functional
# Rattus norvegicus [20] = assay: Antinociceptive activity in spinal nerve ligation CD rat model of neuropathic pain assessed as inhibition of mechanical allodynia at 39 mg/kg, po after 15 to 180 mins; assay type: functional
# Mus musculus [21] = assay: Antinociceptive activity in sciatic nerve chronic constriction injury CD1 mouse model assessed as paw withdrawal threshold at 3.5 umol/kg, po measured at 180 mins (reference value: 0.26 to 0.37 g); assay type: functional
# Mus musculus [22] = assay: Antinociceptive activity in sciatic nerve chronic constriction injury CD1 mouse model assessed as paw withdrawal threshold at 1.3 umol/kg administered intrathecally measured at 300 mins (reference value: 0.21 to 0.30 g); assay type: functional
# Mus musculus [23] = assay: Antinociceptive activity in sciatic nerve chronic constriction injury CD1 mouse model assessed as paw withdrawal threshold at 1.3 umol/kg administered intrathecally measured at 60 mins (reference value: 0.21 to 0.30 g); assay type: functional
# Adenosine receptor A2a = Adenosine receptor A2a (Homo sapiens, UniProt P29274); assay: Binding affinity to adenosine A2A receptor (unknown origin)
# Chain of Adenosine receptor A2a (P29274 whole entry): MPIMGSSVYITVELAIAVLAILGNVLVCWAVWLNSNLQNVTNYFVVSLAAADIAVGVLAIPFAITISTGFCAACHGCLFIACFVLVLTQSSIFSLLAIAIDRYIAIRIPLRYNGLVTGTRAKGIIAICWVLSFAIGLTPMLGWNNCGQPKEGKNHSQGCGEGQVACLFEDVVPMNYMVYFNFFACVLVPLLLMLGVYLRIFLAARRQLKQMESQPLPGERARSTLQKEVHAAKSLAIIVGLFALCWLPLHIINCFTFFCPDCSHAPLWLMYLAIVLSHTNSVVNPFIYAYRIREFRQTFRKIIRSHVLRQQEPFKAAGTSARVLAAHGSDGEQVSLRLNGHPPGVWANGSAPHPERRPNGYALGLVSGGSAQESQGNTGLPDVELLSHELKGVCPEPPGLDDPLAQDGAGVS
# [24] = molecular target: Somatostatin receptor type 4 (Homo sapiens, UniProt P31391); assay: Binding affinity to SST4 receptor (unknown origin)
# Chain of Somatostatin receptor type 4 (P31391 whole entry): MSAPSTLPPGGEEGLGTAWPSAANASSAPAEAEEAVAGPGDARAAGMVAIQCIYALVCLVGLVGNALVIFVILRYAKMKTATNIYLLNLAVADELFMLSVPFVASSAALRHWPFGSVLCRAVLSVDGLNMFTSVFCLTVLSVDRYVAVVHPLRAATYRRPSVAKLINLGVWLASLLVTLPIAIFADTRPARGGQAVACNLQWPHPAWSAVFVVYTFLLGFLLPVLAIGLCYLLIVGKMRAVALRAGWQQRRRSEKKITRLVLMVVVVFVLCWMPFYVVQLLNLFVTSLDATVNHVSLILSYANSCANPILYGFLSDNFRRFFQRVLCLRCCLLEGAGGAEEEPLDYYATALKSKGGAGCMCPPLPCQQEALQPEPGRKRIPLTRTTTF
# Mus musculus [25] = assay: Antinociceptive activity in sciatic nerve chronic constriction injury CD1 mouse model assessed as paw withdrawal threshold at 3.5 umol/kg, po measured at 300 mins (reference value: 0.26 to 0.37 g); assay type: functional
# Mus musculus [26] = assay: Antinociceptive activity in sciatic nerve chronic constriction injury CD1 mouse model assessed as paw withdrawal threshold at 1.3 umol/kg administered intrathecally measured at 180 mins (reference value: 0.21 to 0.30 g); assay type: functional
# Rattus norvegicus [27] = assay: Antinociceptive activity in Complete Freund's adjuvant-induced inflammatory pain CD rat model assessed as mechanical hypersensitivity measured as weight bearing capacity at 5 mg/kg, po administered 24 hrs post challenge relative to control; assay type: functional
# [28] = AUC (0 to t) in CD1 mouse at 5 mg/kg, po; assay type: ADME, organism-based; design: dose 5 mg/kg, route oral; conditions: plasma
# [29] = Elimination rate constant in CD1 mouse at 5 mg/kg, po; assay type: ADME, organism-based; design: dose 5 mg/kg, route oral; conditions: in vivo
# Rattus norvegicus [30] = assay: Antinociceptive activity in Complete Freund's adjuvant-induced inflammatory pain CD rat model assessed as mechanical hypersensitivity measured as weight bearing capacity at 5 mg/kg, po measured up to 15 mins relative to control; assay type: functional, organism-based; design: dose 5 mg/kg
# [31] = Binding affinity to strychnine-sensitive glycine receptor (unknown origin); design: species or system Homo sapiens
# Rattus norvegicus [32] = assay: Antinociceptive activity in Complete Freund's adjuvant-induced inflammatory pain CD rat model assessed as time required for maximal effect at 5 mg/kg, po relative to control; assay type: functional
# Rattus norvegicus [33] = assay: Antinociceptive activity in Complete Freund's adjuvant-induced inflammatory pain CD rat model assessed as mechanical hypersensitivity measured as weight bearing capacity at 5 mg/kg, po measured after 15 to 120 mins relative to control; assay type: functional
# Adenosine receptor A3 = molecular target: T2, Adenosine receptor A3 (Homo sapiens, UniProt P0DMS8); assay: Binding affinity to adenosine A3 receptor (unknown origin)
# T2 sequence (P0DMS8 whole entry): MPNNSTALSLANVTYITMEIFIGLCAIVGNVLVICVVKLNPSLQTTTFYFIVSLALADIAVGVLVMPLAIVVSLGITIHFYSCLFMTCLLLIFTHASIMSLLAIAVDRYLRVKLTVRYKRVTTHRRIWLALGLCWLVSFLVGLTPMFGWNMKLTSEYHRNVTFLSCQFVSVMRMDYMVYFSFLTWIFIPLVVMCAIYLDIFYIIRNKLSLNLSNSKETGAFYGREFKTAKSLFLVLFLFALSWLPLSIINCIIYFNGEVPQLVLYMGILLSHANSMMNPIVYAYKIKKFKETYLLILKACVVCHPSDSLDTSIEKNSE
# Rattus norvegicus [34] = assay: Antinociceptive activity in spinal nerve ligation CD rat model of neuropathic pain assessed as inhibition of mechanical allodynia measured as time required for maximal effect at 39 mg/kg, po; assay type: functional
# Rattus norvegicus [35] = assay: Antinociceptive activity in spinal nerve ligation CD rat model of neuropathic pain assessed as inhibition of mechanical allodynia measured as paw withdrawal threshold at 39 mg/kg, po up to 15 mins; assay type: functional, organism-based; design: dose 39 mg/kg
# [36] = Elimination rate constant in CD rat at 27 mg/kg, iv; assay type: ADME, organism-based; design: dose 27 mg/kg, route intravenous; conditions: in vivo
# Rattus norvegicus [37] = assay: Toxicity in Complete Freund's adjuvant-induced inflammatory pain CD rat model assessed as sedation at 30 mg/kg, po measured at 2 hrs post dose; assay type: organism-based; design: dose 30 mg/kg, route oral; conditions: in vivo
# [38] = AUC (0 to infinity) in CD rat at 27 mg/kg, iv; assay type: ADME, organism-based; design: time infinity, dose 27 mg/kg, route intravenous; conditions: plasma
# [39] = AUC (0 to t) in CD rat at 27 mg/kg, iv; assay type: ADME, organism-based; design: dose 27 mg/kg, route intravenous; conditions: plasma
# [40] = Half life in CD rat at 27 mg/kg, iv; assay type: ADME, organism-based; design: dose 27 mg/kg, route intravenous; conditions: in vivo
# Rattus norvegicus [41] = assay: Antinociceptive activity in Complete Freund's adjuvant-induced inflammatory pain CD rat model assessed as mechanical hypersensitivity measured as weight bearing capacity at 30 mg/kg, po measured after 15 to 120 mins relative to control; assay type: functional, organism-based; design: dose 30 mg/kg
# [42] = Tmax in CD rat at 27 mg/kg, iv; assay type: ADME, organism-based; design: dose 27 mg/kg, route intravenous; conditions: in vivo
# Rattus norvegicus [43] = assay: Antinociceptive activity in Complete Freund's adjuvant-induced inflammatory pain CD rat model assessed as time required for maximal effect at 30 mg/kg, po relative to control; assay type: functional
# Rattus norvegicus [44] = assay: Antinociceptive activity in Complete Freund's adjuvant-induced inflammatory pain CD rat model assessed as mechanical hypersensitivity measured as weight bearing capacity at 30 mg/kg, po measured up to 15 mins relative to control; assay type: functional, organism-based; design: dose 30 mg/kg
# [45] = Cmax in CD rat at 27 mg/kg, iv; assay type: ADME, organism-based; design: dose 27 mg/kg, route intravenous; conditions: in vivo
# Chain of Transient receptor potential cation channel subfamily V member 1 (Q8NER1 whole entry): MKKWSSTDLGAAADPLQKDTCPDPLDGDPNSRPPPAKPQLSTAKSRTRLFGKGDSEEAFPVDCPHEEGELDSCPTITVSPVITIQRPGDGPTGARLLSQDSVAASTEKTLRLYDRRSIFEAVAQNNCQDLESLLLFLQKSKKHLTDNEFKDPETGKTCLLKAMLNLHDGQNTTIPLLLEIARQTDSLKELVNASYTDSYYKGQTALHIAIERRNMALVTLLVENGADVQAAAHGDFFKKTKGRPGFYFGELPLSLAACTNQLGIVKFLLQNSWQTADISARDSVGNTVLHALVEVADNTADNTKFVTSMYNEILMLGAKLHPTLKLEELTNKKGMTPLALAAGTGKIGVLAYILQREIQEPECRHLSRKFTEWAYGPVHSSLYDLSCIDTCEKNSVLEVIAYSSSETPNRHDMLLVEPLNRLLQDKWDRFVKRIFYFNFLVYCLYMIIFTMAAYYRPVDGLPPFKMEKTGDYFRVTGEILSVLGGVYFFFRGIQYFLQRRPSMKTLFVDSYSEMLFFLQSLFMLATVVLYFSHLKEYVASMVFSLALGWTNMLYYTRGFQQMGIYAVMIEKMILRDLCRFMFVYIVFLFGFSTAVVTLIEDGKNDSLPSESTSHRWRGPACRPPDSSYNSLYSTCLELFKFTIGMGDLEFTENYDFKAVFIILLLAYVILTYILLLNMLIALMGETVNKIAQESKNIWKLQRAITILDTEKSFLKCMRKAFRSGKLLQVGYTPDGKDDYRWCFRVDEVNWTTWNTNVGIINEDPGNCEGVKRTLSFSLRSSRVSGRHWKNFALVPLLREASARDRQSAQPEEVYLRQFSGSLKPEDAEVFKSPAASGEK
compound,measurement,setting,value
CN1CCc2c(c3cccc4c3n2CCc2ccccc2-4)C1,Ki,[1],Not Active
same,Cmax,[2],0.126 µg/mL
same,Ki,[3],> 10 µM
same,Ki,[4],0.312 µM
same,Time,Rattus norvegicus [5],30 min
same,half-life,[6],1.86 h
same,AUC(0-inf),[7],0.216 µg·h/mL
same,Activity,Mus musculus [8],0.86 g
same,fold change (FC),Rattus norvegicus [9],7
same,Tmax,[10],0.25 h
same,Ki,[11],> 10 µM
same,Activity,Rattus norvegicus [12],50.8%
same,Ki,[13],> 10 µM
same,Activity,Rattus norvegicus [14],Non-toxic
same,Activity,Mus musculus [15],0.57 g
same,fold change (FC),Rattus norvegicus [16],5
same,Ki,Cannabinoid receptor 1,> 10 µM
same,Ki,Adenosine receptor A1,> 10 µM
same,Activity,Mus musculus [17],0.75 g
same,Ki,Cannabinoid receptor 2,> 10 µM
same,Activity,Mus musculus [18],0.67 g
same,Activity,Mus musculus [19],1.09 g
same,inhibition in vivo at 39 mg/kg,Rattus norvegicus [20],50%
same,Activity,Mus musculus [21],0.4 g
same,Activity,Mus musculus [22],0.21 g
same,Activity,Mus musculus [23],0.88 g
same,Ki,Adenosine receptor A2a,> 10 µM
same,Ki,[24],> 10 µM
same,Activity,Mus musculus [25],0.21 g
same,Activity,Mus musculus [26],0.41 g
same,Activity,Rattus norvegicus [27],35.2%
same,AUC(0-t),[28],0.211 µg·h/mL
same,k el,[29],0.000103 s⁻¹
same,Activity,Rattus norvegicus [30],Active
same,Ki,[31],> 10 µM
same,Time,Rattus norvegicus [32],60 min
same,Activity,Rattus norvegicus [33],90%
same,Ki,Adenosine receptor A3,> 10 µM
CC(C)C[C@H](CN)CC(=O)O [PREGABALIN],Time,Rattus norvegicus [34],120 min
same,inhibition,Rattus norvegicus [35],Active
COc1ccc2c(c1)c(CC(=O)O)c(C)n2C(=O)c1ccc(Cl)cc1 [INDOMETHACIN],k el,[36],3.33e-05 s⁻¹
same,Activity,Rattus norvegicus [37],Toxic
same,AUC(0-inf),[38],97.1 µg·h/mL
same,AUC(0-t),[39],93.8 µg·h/mL
same,half-life,[40],5.99 h
same,Activity,Rattus norvegicus [41],Active
same,Tmax,[42],0.75 h
same,Time,Rattus norvegicus [43],60 min
same,Activity,Rattus norvegicus [44],Active
same,Cmax,[45],10.4 µg/mL
